In patent EP1479389B1, “Ready to use gemcitabine solutions” (STADA ARZNEIMITTEL AG, priority 2003, dated 2004):

Tests used:
Assay type in all cases: physicochemical
[1] = Visible precipitation of aqueous gemcitabine solutions on storage (solubility, initial pH ca. 4,0); details: water, pH 4, water, 2-8°C storage, no solubility enhancers, read-out: Gehalt klarer partikelfreier Gemcitabinlösungen
Method: Zur Bestimmung der Löslichkeit von Gemcitabin in wässrigen Lösungen (bei T = 25°C und T = 2-8°C, Anfangs-pH-Wert = 4,0) wurde Gemcitabinhydrochlorid in Wasser für Injektionszwecke bei 25°C gelöst (c(Gemcitabin) = 55,2 mg/ml entsprechend 62,8 mg Gemcitabinhydrochlorid pro ml Wasser sowie c(Gemcitabin) = 10,0mg/ml entsprechend 11,38 mg Gemcitabinhydrochlorid pro ml Wasser) und der pH-Wert mit q.s. 1 N Natronlauge / q.s. 1 N Salzsäure eingestellt.
Aus dem so gewonnenen Ansatz wurden mit Wasser für Injektionszwecke verdünnte Lösungen hergestellt und potentiometrisch deren pH-Wert bestimmt. Die hergestellten Lösungen wurden jeweils als 5ml-Aliquote in mit Durchstechstopfen dicht verschlossenen Vials abgefüllt. Diese Proben wurden nach Lagerung bei 2-8°C bzw. bei 25°C auf sichtbare Auskristallisation des Wirkstoffs geprüft ("+" Niederschlag; "-" klar und partikelfrei) und ihr pH-Wert bestimmt. Tabelle 1: Niederschlagbildung in 25°C und 2-8°C-gelagerter Gemcitabinlösungen (Anfangs-pH ca. 4,0)

[2] = pH-dependent visible crystallisation of concentrated gemcitabine solutions; details: c=52,7mg Gemcitabin/ml
Method: Zur Bestimmung der tatsächlichen, pH-abhängigen Löslichkeit von Gemcitabin in wässrigen Lösungen wurden entsprechend Beispiel 1 konzentrierte Gemcitabin-Lösungen (c=52,7 mg Gemcitabin/ml entsprechend 60mg Gemcitabinhydrochlorid pro ml Wasser; 5 ml/Vial) hergestellt, deren pH-Wert mit q.s. 1 N Natronlauge auf pH-Werte von 2,0 bis 5,0 eingestellt wurde. Die so erhaltenen Lösungen wurden bei einer Lagertemperatur von 2-8°C gelagert.
Tabelle 2: Stabilität von konzentrierten Gemcitabin-Lösungen vs. Auskristallisation des Wirkstoffs

[3] = Temperature-dependent storage stability of gemcitabine solutions pH 4,0, content by HPLC; details: 10 mg/ml
Method: Zur weiteren Bestimmung der Temperatur-Abhängigkeit der Stabilität von erfindungsgemäßen Gemcitabin-Lösungen mit einem pH-Wert von ca. 4,0, wurden wie zuvor beschrieben Lösungen, deren pH-Wert mit 1 N Natronlauge eingestellt wurde, mit einer Gemcitabin-Konzentration von 10 mg/ml (in Wasser für Injektionszwecke) hergestellt. Diese wurden über einen Zeitraum von 12 Monaten gelagert. In dieser Zeit wurde die Wirkstoffkonzentration in regelmäßigen Abständen mittels HPLC bestimmt. Tabelle 3: Temperatur-abhängige Stabilität von Gemcitabin-Lösungen (c(Gemcitabin) = 10 mg/ml entsprechend 11,39 mg Gemcitabinhydrochlorid pro ml Wasser, pH 4,0)

[4] = Regressive extrapolation of the Table 6 storage stability data to 1-4 years; details: 10 mg/ml in aqueous solution, pH ca. 8; Lagertemperatur 25°C
Method: Eine regressive Extrapolation der in Tabelle 6 angegebenen Daten ergab folgende in Tabelle 7 aufgeführte Lagerstabilitäten. Tabelle 7 : Stabilität von Gemcitabin-Lösungen mit pH = 8,0 bei 25°C, 40°C und 60°C bei einer Lagerzeit von 1-4 Jahren

[5] = pH-dependent visible crystallisation of concentrated gemcitabine solutions; details: pH 5,0; 25°C; c=52,7 mg Gemcitabin/ml

Nc1ccn([C@@H]2O[C@H](CO)[C@@H](O)C2(F)F)c(=O)n1 [Gemcitabin, 2'-Deoxy-2',2'-difluorcytidin]
solubility [1]: ~10000 µg/mL | Sichtbare Auskristallisation ([2]; pH 2,0, nach 1 Tag (2-8°C)): + | Sichtbare Auskristallisation ([2]; pH 2,0, nach 2 Tagen (2-8°C)): + | Sichtbare Auskristallisation ([2]; pH 2,0, nach 3 Tagen (2-8°C)): + | Sichtbare Auskristallisation ([2]; pH 2,0, nach 7 Tagen (2-8°C)): + | Sichtbare Auskristallisation ([2]; pH 2,0, nach 14 Tagen (2-8°C)): + | Sichtbare Auskristallisation ([2]; pH 2,5, nach 1 Tag (2-8°C)): - | Sichtbare Auskristallisation ([2]; pH 2,5, nach 2 Tagen (2-8°C)): + | Sichtbare Auskristallisation ([2]; pH 2,5, nach 3 Tagen (2-8°C)): + | Sichtbare Auskristallisation ([2]; pH 2,5, nach 7 Tagen (2-8°C)): + | Sichtbare Auskristallisation ([2]; pH 2,5, nach 14 Tagen (2-8°C)): + | Sichtbare Auskristallisation ([2]; pH 3,0, nach 1 Tag (2-8°C)): - | Sichtbare Auskristallisation ([2]; pH 3,0, nach 2 Tagen (2-8°C)): + | Sichtbare Auskristallisation ([2]; pH 3,0, nach 3 Tagen (2-8°C)): + | Sichtbare Auskristallisation ([2]; pH 3,0, nach 7 Tagen (2-8°C)): + | Sichtbare Auskristallisation ([2]; pH 3,0, nach 14 Tagen (2-8°C)): + | Sichtbare Auskristallisation ([2]; pH 3,5, nach 1 Tag (2-8°C)): - | Sichtbare Auskristallisation ([2]; pH 3,5, nach 2 Tagen (2-8°C)): - | Sichtbare Auskristallisation ([2]; pH 3,5, nach 3 Tagen (2-8°C)): - | Sichtbare Auskristallisation ([2]; pH 3,5, nach 7 Tagen (2-8°C)): - | Sichtbare Auskristallisation ([2]; pH 3,5, nach 14 Tagen (2-8°C)): - | Gehalt ([3]; 5°C, 0 mon): 100,0 rel.% | Gehalt ([3]; 5°C, 3 mon, 129600 min): 99,7 rel.% | Gehalt ([3]; 5°C, 6 mon, 259200 min): 99,4 rel.% | Gehalt ([3]; 5°C, 9 mon, 388800 min): 99,2 rel.% | Gehalt ([3]; 5°C, 12 mon, 518400 min): 99,0 rel.% | Gehalt ([3]; 15°C, 0 mon): 100,0 rel.% | Gehalt ([3]; 15°C, 3 mon, 129600 min): 99,6 rel.% | Gehalt ([3]; 15°C, 6 mon, 259200 min): 99,2 rel.% | Gehalt ([3]; 15°C, 9 mon, 388800 min): 98,8 rel.% | Gehalt ([3]; 15°C, 12 mon, 518400 min): 98,3 rel.% | Gehalt ([3]; 25°C, 0 mon): 100,0 rel.% | Gehalt ([3]; 25°C, 3 mon, 129600 min): 97,1 rel.% | Gehalt ([3]; 25°C, 6 mon, 259200 min): 94,1 rel.% | Dauer, über die die Lösungen stabil sind [4]: ≥ 3 Jahren | Auskristallisation [5]: spontane (pH 5,0; 25°C) Auskristallisation
